Where two headings read alike, the source gives them in different places.
Tests used:
OsD14 [1] = target: T1, OsD14 (Oryza sativa subsp. japonica, UniProt Q10QA5); assay: Yoshimulactone Green (YLG) hydrolysis analysis; assay type: biochemical, rice
T1 construct: made in house
T1 sequence (Q10QA5 1-318): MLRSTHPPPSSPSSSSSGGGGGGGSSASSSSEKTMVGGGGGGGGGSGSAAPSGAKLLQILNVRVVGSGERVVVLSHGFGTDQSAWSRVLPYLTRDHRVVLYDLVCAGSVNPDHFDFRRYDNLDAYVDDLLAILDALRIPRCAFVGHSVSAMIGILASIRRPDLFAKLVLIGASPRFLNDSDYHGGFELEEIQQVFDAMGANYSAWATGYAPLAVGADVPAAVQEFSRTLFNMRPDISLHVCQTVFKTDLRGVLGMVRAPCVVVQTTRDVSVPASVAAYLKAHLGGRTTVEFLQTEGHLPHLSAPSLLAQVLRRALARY
Method: (§1) For measuring the hydrolysis of YLG in vitro, 10 μg of purified ShHTL7, AtD14 and OsD14 in a reaction buffer (1×PBS) containing 0.1% dimethyl sulfoxide (DMSO) in a total volume of 100 μL in 96-well black plate (Greiner) were used. To measure the fluorescent intensity, SpectraMax i3 (Molecular Devices) with an excitation wavelength of 480 nm and a detection wavelength of 520 nm were used. […] Proteins were pre-incubated with Tritone X-100 for 30 min, followed by incubation with 1 μM YLG (Tokyo Chemical Industry Co. Ltd., product number E1238) for 60 min. Fluorescence values measured in the void control were subtracted from those obtained in the presence of protein. Curves and IC50 values were plotted using Graph pad (PRISM 6) four-parameter logistic curve.

ShHTL7 [2] = target: T2, ShHTL7 (Striga hermonthica, UniProt A0A0M3PNA2); assay: Differential static light scattering (DSLS), aggregation temperature; assay type: binding; conditions: following pre-incubation; varying Triton concentrations
Method: The specific aggregation temperature, Tagg, was determined using DSLS on the Stargazer system (Harbinger Biotechnology and Engineering Corporation, Markham, Canada). For this purpose, purified protein (1 mg/mL) was overlaid with mineral oil in a clear bottom 384-well black plate (Corning), and temperature was increased from 20 to 95° C. with a ratio of 1° C./min. A CCD camera was used to detect light scattering every 0.5° C. in the presence or absence of varying concentrations of Triton X-100, unraveling X-100 concentration-dependent changes in aggregation temperature (ShHTL7 ΔTagg). Data were normalized, and ΔTagg was plotted against the Triton X-100 concentration. Resulting data were plotted to determine the change in Tagg of ShHTL7 upon binding to Triton X-100 using Graph pad (PRISM 6).

[3] = test system: rice seeds cv. Nipponbare; assay type: in vivo; conditions: Striga germination vs rice growth
Method: The rice seeds cv. Nipponbare were surface-sterilized using 50 ml (2.5%) sodium hypochlorite with 0.4% of Tween-20 for 15 min. After six subsequent washing steps with sterilized water, the rice seeds were kept in water at 30° C. for overnight imbibition. About 2 ml of dilutions of Triton X-100 at 15.4 μM, 1.54 μM in sterile MilliQ water (control) was added in 24-well plates with six replications. One sterilized rice seed was put in each well and allowed to germinate for 48 h at 30° C. The germinated (radicle emergence) and non-germinated seeds were recorded and germination percentage was calculated. Then same seeds were allowed to grow under light in growth cabinet for another one week. The length of one week old seedlings was measured with a roller and averaged.

ShHTL7 [4] = target: T2, ShHTL7; assay: Yoshimulactone Green (YLG) hydrolysis analysis; assay type: biochemical; conditions: for IC50: pre-incubation 30 min, 1 μM YLG 60 min
Method: For measuring the hydrolysis of YLG in vitro, 10 μg of purified ShHTL7, AtD14 and OsD14 in a reaction buffer (1×PBS) containing 0.1% dimethyl sulfoxide (DMSO) in a total volume of 100 μL in 96-well black plate (Greiner) were used. To measure the fluorescent intensity, SpectraMax i3 (Molecular Devices) with an excitation wavelength of 480 nm and a detection wavelength of 520 nm were used. Purified proteins were mixed with Triton X-100, using serial dilutions with concentrations ranging from 5 μM to 4.87 nM. Proteins were pre-incubated with Tritone X-100 for 30 min, followed by incubation with 1 μM YLG (Tokyo Chemical Industry Co. Ltd., product number E1238) for 60 min. Fluorescence values measured in the void control were subtracted from those obtained in the presence of protein. Curves and IC50 values were plotted using Graph pad (PRISM 6) four-parameter logistic curve.

AtD14 [5] = target: T3, AtD14 (Arabidopsis thaliana, UniProt Q9SQR3); assay: Yoshimulactone Green (YLG) hydrolysis analysis; assay type: biochemical, A. thaliana
T3 construct: made in house
T3 sequence (Q9SQR3 1-267): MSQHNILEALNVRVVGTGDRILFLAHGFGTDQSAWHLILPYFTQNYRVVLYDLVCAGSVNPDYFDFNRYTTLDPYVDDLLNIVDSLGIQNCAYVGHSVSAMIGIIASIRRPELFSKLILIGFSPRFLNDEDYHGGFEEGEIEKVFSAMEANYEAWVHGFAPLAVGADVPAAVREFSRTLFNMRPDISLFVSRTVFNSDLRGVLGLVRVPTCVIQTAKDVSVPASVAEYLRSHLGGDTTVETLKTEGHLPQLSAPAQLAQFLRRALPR
Method: as §1

AtD14 [6] = target: T3, AtD14; assay: Intrinsic Triton X-100 fluorescence binding assay; parameters: species or system A. thaliana; conditions: AtD14 concentrations up to 10 μM
Method: (§2) Since Triton X-100 has an excitation and emission wavelength of 275 nm and 302 nm, fluorescence was measured at the corresponding wavelengths using SpectraMax i3 (Molecular Devices). […] Data were normalized to the background fluorescence from the protein and values obtained in absence of proteins were subtracted, to determine changes in Triton X-100 fluorescence intensity. Kd values were determined by plotting changes in Triton X-100 fluorescence intensity against the concentration of the protein, using the single binding site model implemented in Graph pad (PRISM 6).

ShHTL7 [7] = target: T2, ShHTL7; assay: Intrinsic Triton X-100 fluorescence binding assay
Method: cDNA fragments, encoding the S. hermonthica ShHTL7 or the mutated version S95C (in which the serine in the active triad was changed to cysteine) flanked with BamHI and XhoI restriction sites, were cloned into the pGEX-6P1 (GE Healthcare) expression vector that enables the expression of GST fusion protein, using the corresponding restriction sites, as shown in Table 1 below. The plasmid obtained was then transformed into BL21 (DE3) E. coli cells. Cells were grown in LB medium at 37° C., and protein expression was induced at OD 0.6 at λ=600 nm by adding 150 μM isopropyl β-D-1-thiogalactopyranoside (IPTG). After induction, cultures were grown at 16° C. overnight under shaking. […]
as §2, with “Purified proteins (at concentrations of […] to 5 μM) were incubated with 1.54 μM of Triton X-100 for 2 h. Since” for “Since”

OsD14 [8] = target: T1, OsD14; assay: Intrinsic Triton X-100 fluorescence binding assay; parameters: species or system rice; conditions: OsD14 concentrations up to 10 μM
Method: as §2

ShHTL7 L143Y mutant = assay: Yoshimulactone Green (YLG) hydrolysis analysis; assay type: biochemical, Striga hermonthica
Striga hermonthica seeds = assay: Striga hermonthica germination assay (GR24-induced); assay type: in vivo
Method: Striga hermonthica germination bioassays were carried out using Striga seeds collected from a Sorghum bicolor field in Sudan. About 50-100 dry Striga washed and sterilized seeds were distributed on a 9-mm diameter glass fiber filter paper discs (Sartorius, Goettingen Germany). Discs were then placed in 9-cm diameter petri-dishes (12 discs per petri-dish) on filter paper (Whatman, Maidstone, UK) moistened with 3 mL sterilized water. The petri-dishes were sealed with parafilm, wrapped with aluminum foil and incubated in growth chambers at 30° C. for 10 days for preconditioning. On the 11th day, discs were air dried in laminar flow cabinet and transferred to 9-cm petri-dishes (four discs in each plate), which contained 9-mm diameter glass fiber filter paper rings, moistened with 900 μL sterile MilliQ water. The pre-conditioned Striga seeds were treated with Triton X-100 at concentrations of 15.4 μM (0.001%) and 1.54 μM (0.0001%) along with GR24 at 1 nM, 0.5 nM, 0.25 nM and 0.125 nM respectively. Triton X-100/GR24 mixtures were applied (50 μl per disc) in four replicates. Corresponding volumes of GR24 and sterile MilliQ water were included as positive and negative control, respectively. The petri-dishes were sealed with parafilm, enfolded with aluminum foil and incubated for 48 h at 30° C. The germinated (seeds with radicle emerging through the seed coat) and non-germinated Striga seeds were recorded under a binocular and germination percentage was calculated.

ShHTL7 [9] = target: T2, ShHTL7; conditions: A. thaliana line expressing ShHTL7; cited from earlier work
ShHTL7 [10] = target: T2, ShHTL7; conditions: read-out: Kd of ShHTL7 and GR24

T2 sequence (A0A0M3PNA2 entry or part of it): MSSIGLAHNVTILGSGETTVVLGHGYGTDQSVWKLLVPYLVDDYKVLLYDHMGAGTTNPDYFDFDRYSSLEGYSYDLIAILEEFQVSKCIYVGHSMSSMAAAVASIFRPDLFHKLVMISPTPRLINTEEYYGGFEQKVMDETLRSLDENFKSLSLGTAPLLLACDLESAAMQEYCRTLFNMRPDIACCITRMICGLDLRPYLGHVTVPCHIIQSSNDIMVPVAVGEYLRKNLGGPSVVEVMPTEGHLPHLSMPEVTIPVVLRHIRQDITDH

For “polyethylene glycol tert-octylphenyl ether [Triton X-100]”, the “Inhibition of YLG hydrolysis by OsD14” value (OsD14 [1]; 10 μM Triton) was “around 10%”, the “Effect on YLG hydrolysis by OsD14” value (OsD14 [1]; up to 0.5 μM Triton) was “did not affect” and the “Aggregation temperature (Tagg) of ShHTL7” value (ShHTL7 [2]) was “aggregation temperature increases in a Triton concentration-dependent manner”. The “Triton concentrations inhibiting S. hermonthica germination relative to concentrations that affect rice growth” value [3] was “five orders of magnitude lower”, the IC50 (ShHTL7 [4]) was 470 ± 110 nM and the “Inhibition of YLG hydrolysis by AtD14” value (AtD14 [5]; 10 μM Triton) was “around 10%”. The “Effect on YLG hydrolysis by AtD14” value (AtD14 [5]; up to 0.5 μM Triton) was “did not affect”, the “Change in Triton fluorescence with AtD14” value (AtD14 [6]) was “No change in Triton fluorescence” and the “Affinity of Triton for ShHTL7 relative to GR24” value (ShHTL7 [7]; Kd 31 nM vs Kd 440 nM) was “about ten times higher affinity”. The Kd (ShHTL7 [7]; following pre-incubation 2 h or more, intrinsic Triton fluorescence, read-out: Kd between Triton and ShHTL7) was 31 nM, the “Change in Triton fluorescence with OsD14” value (OsD14 [8]) was “No change in Triton fluorescence” and the “Inhibition of YLG hydrolysis by ShHTL7 L143Y mutant” value (ShHTL7 L143Y mutant) was “failed to inhibit”. The “Inhibition of GR24-induced S. hermonthica germination” value (Striga hermonthica seeds; 1.54 μM Triton X-100) was “significantly inhibiting”, the “Inhibition of GR24-induced S. hermonthica germination” value (Striga hermonthica seeds; 15.4 μM Triton X-100) was “significantly inhibiting” and the “Inhibition of S. hermonthica germination” value (Striga hermonthica seeds; maximum inhibition) was “up to 90%”.

In the case of `CC(C)(C)CC(C)(C)c1ccc(OCCOCCO)cc1` [4-ter-octylphenol diethoxylate], the IC50 (ShHTL7 [4]) is reported as 7500 ± 2100 nM.

For `CC(C)(C)CC(C)(C)c1ccc(OCC(=O)O)cc1` [2-[4-(2,4,4-trimethylpentan-2-yl)phenoxy]acetic acid], the “Inhibitory effect on ShHTL7 catalyzed hydrolysis of YLG” value (ShHTL7 [4]; in words) was “clear inhibitory effect” and the IC50 (ShHTL7 [4]) was 1500 ± 410 nM.

For `CC(C)(C)CC(C)(C)c1ccc(OCCO)cc1` [4-ter-octylphenol Monoethoxylate], the IC50 (ShHTL7 [4]) was 9200 ± 3200 nM.

In the case of `CC1=C[C@H](O/C=C2/C(=O)O[C@@H]3c4ccccc4C[C@H]23)OC1=O` [GR24], the “GR24 concentration triggering germination” value (ShHTL7 [9]) is listed as “picomolar concentrations” and the Kd (ShHTL7 [10]) is listed as 440 nM.
